Legend:
[1] = cited from earlier work
[2] = Test Example 2: Appearance (degree of coloring) of aqueous solution left at 70° C.; format: physicochemical; details: stabilizing component added to aqueous solution of Compound A
Description: To examine the stabilizing effect of a stabilizing component, the degree of coloring was determined. […] Subsequently, the color tone of each filtrate was observed visually.

Structure (SMILES)	Water solubility [1]	Results in view of appearance [2]
NC(=O)c1nc(F)c[nH]c1=O [Compound A, 6-fluoro-3-hydroxy-2-pyrazinecarboxamide]	low water solubility	
O=C(O)CN(CCN(CC(=O)O)CC(=O)O)CC(=O)O [EDTA, ethylenediamine tetraacetic acid]		particularly favorable
O=C(O)CN(CCO)CCO [bicine, N,N-bis(2-hydroxyethyl)glycine]		particularly favorable
O=C(O)CNC(CO)(CO)CO [tricine, N-[tris(hydroxymethyl)methyl]glycine]		particularly favorable
NC(CO)(CO)CO [trometamol]		particularly favorable
